Here are results for four compounds from publication PMC9666555, “Genuine selective caspase-2 inhibition with new irreversible small peptidomimetics” (Cell Death & Disease, 2022).

One series has as its system HeLa cells. Kind of series: Vincristine-induced HeLa cell death (propidium iodide, flow cytometry). The settings on record: 1 h pretreatment, 20 nM vincristine 44 h. The class given is cell-based, human. How it is done:
(§1) HeLa cells (obtained from ATCC) were cultured in Dulbecco’s Modified Eagle Medium (DMEM, High Glucose, GlutaMAX™, Pyruvate) supplemented with antibiotics and 10% fetal calf serum (FCS) (Gibco, Life Technologies) and maintained in T75 Flasks at 1 × 10^6 cells per flask. Twenty-four hours before treatments, HeLa cells were transferred to 6-well plates (8 × 10^4 cells/well). The lymphoblastoid cell line Molt4cl8 was a gift from Dr. Bernard Krust (Inserm, University Paris 5) and was cultured in RPMI 1640 Glutamax medium supplemented with Hepes, antibiotics, and 10% FCS. HEK293 cells were obtained from ATCC (CRL-1573) and cultured in DMEM with Glutamax and 25 mM glucose (Life Technologies) supplemented with 10% FCS and antibiotics. For cell death induction, the following agents were added to cell cultures: Vincristine (Sigma) and Panobistat (LBH589; Selleck). Cell death was analyzed using fluorescence microscopy (Axio-observer Z1, Zeiss; equipped with CCD camera CoolsnapHQ2, Ropert Scientific) and cytofluorometry (MACSQuant® VYB; Miltenyi Biotec, Bergisch Gladbach, Germany) after labeling with propidium iodide (1 µg/mL; 10 min; 37 °C; Life Technologies) and Hoechst 33342 (1 µg/mL; 5 min; RT; Sigma).
Fig. 2 q33 and h33 are protective against the cytocidal effect of Vincristine. a Vincristine induces HeLa cell death. Cells were incubated for 44 h at 37 °C with 20 nM Vincristine (VCR), then incubated with propidium iodide at 2 μg/mL for 10 min and analyzed by flow cytometry to quantify plasma membrane permeabilization. Histograms show fluorescence intensity detected by flow cytometry (one representative experiment) in the presence (VCR) or Absence (Co.) of Vincristine. % of propidium iodide-positive cells are indicated for both conditions. b Dose–response of Vincristine-induced cell death. HeLa cells were incubated and treated as in (a) with the indicated doses of Vincristine (VCR) and analyzed by flow cytometry. […] Representative fluorescence microscopy micrographs of cells treated for 44 h with 20 nM vincristine (VCR) or not (Co.) and stained with Hoechst 33342. Vincristine induces progressive nuclear changes with first condensed nuclei (arrows) and then apoptotic bodies (dashed arrow). d Broad-spectrum irreversible caspase inhibitors prevent vincristine-induced cell death. HeLa cells were pretreated for 1 hr with the indicated broad-spectrum irreversible caspases inhibitors (z-VAD(OMe)-fmk at 30 μM, Q-VD-OPh 30 μM, Emricasan 10 μM, or the negative control Q-VE-OPh 30 μM), then treated with vincristine as in panel (a), and analyzed by flow cytometry. Histograms show the mean ± SD of 3 independent experiments (***p value < 0.001). e Effect of the reversible Caspase-2 inhibitors q33 and h33 against vincristine-induced cell death. HeLa cells were pretreated for 1 h with the indicated doses of q33 or h33, then treated with vincristine as in panel a, and analyzed by flow cytometry. Histograms show the mean ± SD of three independent experiments (*p value < 0.1). TEXT PRINTED IN THE PICTURE: (a) VCR: 39,5 % DOUBTS OF THE COPYIST ABOUT THIS PICTURE: Panel a: the picture prints no measure beside "39,5 %" and "4.1%". I assigned 39,5 % to VCR only because it stands by the grey VCR peak. / Panel a: "4.1%" seems to belong to the untreated control (Co.). That is not a substance, so it is left out.
Fig. 5 LJ2 inhibits cell death induced by microtubule destabilization and hydroxamic acid-based deacetylase (HDAC) inhibition. a Effect of the irreversible Caspase-2 inhibitors LJ2 against vincristine-induced cell death. HeLa cells were pretreated for 1 h with the indicated doses of LJ2, Q-VD-OPh, or Q-LETD-OPh, then treated with vincristine (VCR) as in Fig. 2, then incubated with propidium iodide at 2 μg/mL for 10 min and analyzed by flow cytometry. Histogram data are mean ± SD (n = 3, *p value < 0.01). b Effect of Caspases-inhibitors against Panobistat (LBH589)-induced cell death. […]
(In general: A flow cytometer gives signals particle by particle.)

Details of series [1]: method as in PMID 31870950, PMID 31887369. The conditions noted are these: cited from earlier work.
On the set-up of series [2]: method as in PMID 21881605. The settings on record: cited from earlier work.
For another series, the target named is T1, recombinant human Casp2 (Homo sapiens, UniProt P42575).
T1 sequence (P42575 170-325 limits assumed): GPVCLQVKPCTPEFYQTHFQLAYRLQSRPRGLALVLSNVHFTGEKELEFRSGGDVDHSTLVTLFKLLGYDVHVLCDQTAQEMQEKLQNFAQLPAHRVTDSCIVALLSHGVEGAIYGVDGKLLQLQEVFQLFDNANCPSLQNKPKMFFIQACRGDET
T1 sequence (P42575 348-452 limits assumed): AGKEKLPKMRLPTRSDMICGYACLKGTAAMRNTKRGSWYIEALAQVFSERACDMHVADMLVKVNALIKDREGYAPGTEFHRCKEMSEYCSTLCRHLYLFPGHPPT
Kind of series: Enzyme mechanistic studies (Ki, k3, k3/KI), Caspase-2. The class given is biochemical. The settings on record: irreversible inhibitors, progress curve method. How it is done:
(§2) For reversible inhibitors, the mechanisms of inhibition were determined by varying substrate and inhibitor concentrations and using Lineweaver−Burk representations to determine the inhibition constants Ki of competitive inhibitors (Ki = [E][I]/[EI]). For suicide inhibitors, inactivation can be represented by the minimum kinetic scheme (Eq. 2), where E and I are the free forms of enzyme and inhibitor, E * I a kinetic chimera of the Michaelis complex and E − I the covalent complex (inactivated enzyme).2 E+I⇄KIE*I→k3E−I
(§3) KI and k3 are the kinetic constants characterizing the inactivation process and the k3/KI ratio is an index of the inhibitory potency. The first-order rate constant, k3, and the apparent dissociation constant, KI, were determined for Caspase-2 and -3 using the progress curve method. Briefly, the enzyme activities were measured continuously for 120 min. To determine the kinetic parameters, progress curves were obtained at several inhibition concentrations using fixed substrate concentration. The product released for each inhibitor concentration was plotted versus the time following Eq. 3 where the constant π depended on [I]’, a modified inhibitor concentration due to substrate competition, according to Eq. 4. [I]’ is defined by Eq. 5, where KM was Michaelis constant for the enzymatic hydrolysis of the appropriate fluorogenic substrate. The ratio k3/KI was obtained by fitting the experimental data to the equations (F.U., fluorescence unit):3 F.U.=∫0tvidt+F.U0−vo×e^−π×t/π+F.U.0 4 π=k3×[I]^′/KI+[I]^′ 5 [I]^′=[I]/1+S/KM
Linear and nonlinear regression fits of the experimental data to the equations were performed with KaleidaGraph software. The experimental conditions were [Caspase-2]0 = 0.2 nM, [Ac-VDVAD-AMC]0 = 25 µM and [Caspase-3]0 = 0.1 nM, [Ac-DEVD-AMC]0 = 10 µM; [I]0 = 0–100 µM.

For the next series, the target named is T2, recombinant human Casp3 (Homo sapiens, UniProt P42574).
T2 sequence (P42574 29-175 limits assumed): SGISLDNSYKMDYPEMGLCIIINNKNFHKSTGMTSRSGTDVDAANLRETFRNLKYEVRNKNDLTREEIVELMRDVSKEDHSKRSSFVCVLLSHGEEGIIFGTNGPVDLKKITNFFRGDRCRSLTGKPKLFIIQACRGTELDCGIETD
T2 sequence (P42574 176-277 limits assumed): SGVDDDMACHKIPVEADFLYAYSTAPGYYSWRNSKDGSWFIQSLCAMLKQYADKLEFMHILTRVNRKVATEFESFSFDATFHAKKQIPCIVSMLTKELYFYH
Kind of series: Enzyme mechanistic studies (Ki, k3, k3/KI), Caspase-3. The class given is biochemical. The settings on record: irreversible inhibitors, progress curve method. Here is the method:
as §2, §3
Linear and nonlinear regression fits of the experimental data to the equations were performed with KaleidaGraph software.

The subject of series [3] is Molt4 lymphoid human cells. Briefly: Panobistat (LBH589)-induced cell death in Molt4 cells (propidium iodide, flow cytometry). The class given is cell-based. The conditions noted are these: Molt4, 1 h pretreatment (30 µM or indicated doses), 25 nM LBH589 24 h. How it is done:
as §1
Fig. 5 LJ2 inhibits cell death induced by microtubule destabilization and hydroxamic acid-based deacetylase (HDAC) inhibition. a Effect of the irreversible Caspase-2 inhibitors LJ2 against vincristine-induced cell death. HeLa cells were pretreated for 1 h with the indicated doses of LJ2, Q-VD-OPh, or Q-LETD-OPh, then treated with vincristine (VCR) as in Fig. 2, then incubated with propidium iodide at 2 μg/mL for 10 min and analyzed by flow cytometry. […] Molt4 lymphoid human cells where were pretreated for 1 h with 30 µM of LJ2, Q-VD-OPh, or Belnacasan (VX-765), then treated for 24 h with 25 nM of LBH589, then incubated with propidium iodide as in (a) and analyzed by flow cytometry. […] Molt4 cells were treated as in (b) with the indicated doses of LJ2 or Q-VD-OPh and analyzed by flow cytometry. […]

What is called inhibition is the share of the control response that was lost under treatment.

In the case of `C[C@H](NC(=O)C(=O)Nc1ccccc1C(C)(C)C)C(=O)N[C@@H](CC(=O)O)C(=O)COc1c(F)c(F)cc(F)c1F` [Emricasan], the inhibition at 10 µM in the series on HeLa cells (Homo sapiens, inhibitor 10 µM) was determined as 95%. Besides, in series [1], the “efficacy in large clinical phase 3 studies for the treatment of NASH” value is recorded as “failed to demonstrate efficacy” and the “toxicity on chronic administration in humans” value was “not toxic nor carcinogenic”.

On to `COC(=O)CC(NC(=O)[C@H](C)NC(=O)C(NC(=O)[C@H](CC(=O)OC)NC(=O)[C@@H](NC(=O)c1ccc2ccccc2n1)C(C)C)C(C)C)C(=O)COc1c(F)cccc1F` (stereo in doubt) [TRP601, Quinolin-2-carbonyl-VD(OMe)VAD(OMe)-CH2-O(2,6F2)Ph, reference compound], for which the neuroprotection result in series [2] (after intraperitoneal and intraveinous administration) is on record as “confer neuroprotection”. Also, in series [2], the “Casp2 in the brain” value is given as “inhibit Casp2 in the brain”; the “toxicity in regulatory rodent and non-rodent studies” value is “non-toxic”. Further, at recombinant human Casp2, the “Casp2 k3” value is on record as 5,56 ms^−1 and the KI (inactivation) stood at 378 nM. On recombinant human Casp3, the “Casp3 k3” value was 4,24 ms^−1, the “Casp3 k3/KI” value is reported as 25 126 M^−1 s^−1 and the KI (inactivation) was 209 nM.

For the compound `CC(C)[C@H](NC(=O)c1ccc2ccccc2n1)C(=O)N[C@@H](CC(=O)O)C(=O)COc1c(F)cccc1F` [Q-VD-OPh], in the series on HeLa cells (inhibitor 30 µM), the “inhibition of vincristine-induced cell death” value is on record as greater than 90%. Further, the “effect against Panobistat (LBH589)-induced cell death” value in series [3] was “strongly inhibited cell death”.

With `CCO[C@@H]1OC(=O)C[C@@H]1NC(=O)[C@@H]1CCCN1C(=O)[C@@H](NC(=O)c1ccc(N)c(Cl)c1)C(C)(C)C` [Belnacasan, (S)-1-((S)-2-{[1-(4-amino-3-chloro-phenyl)-methanoyl]-amino}-3,3-dimethyl-butanoyl)-pyrrolidine-2-carboxylic acid ((2R,3S)-2-ethoxy-5-oxo-tetrahydro-furan-3-yl)-amide], in series [3], the “effect against Panobistat (LBH589)-induced cell death” value is “did not affect cell death”.
